Measured values as given in patent US20220411362A1, “DITERPENOID COMPOUNDS THAT ACT ON PROTEIN KINASE C (PKC)” (K-Gen, Inc., priority 2019, published 2022).

Tests used:
C1b domain of human PKCα = biological target: T1, C1b domain of human PKCα (Homo sapiens, UniProt P17252); test: biochemical; assay type: binding; details: 3H-PDBu competition; for Ki: Ki PKCα
T1 construct: Genes encoding C1b domains of human PKCα, δ, ε, θ, and PKD1 (PKCμ) were synthesized; made in house; host or cells: E. coli BL21(DE3)
Outline: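 Competitive binding against 3H-PDBu tracer used recombinant GST-C1b fusion protein expressed in E. coli. Incubation ran 10 min at 37°C with shaking, then 20 min on ice, followed by filtration and scintillation counting of trapped 3H-PDBu. Affinity was derived using each protein preparation's experimentally determined Kd for 3H-PDBu.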

C1b domain of human PKCθ = biological target: T2, C1b domain of human PKCθ (Homo sapiens, UniProt Q04759); test: Competitive 3H-PDBu binding to C1b domain of PKCθ
T2 construct: Genes encoding C1b domains of human PKCα, δ, ε, θ, and PKD1 (PKCμ) were synthesized; made in house; host or cells: E. coli BL21(DE3)
T2 sequence (Q04759 231-281 limits assumed): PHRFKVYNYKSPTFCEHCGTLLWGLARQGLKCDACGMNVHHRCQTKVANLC
Outline: (§1)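 Binding is reported as Ki, derived from IC50 using Cheng-Prusoff with the experimentally determined 3H-PDBu Kd of each protein preparation. Tracer displacement from recombinant human GST-C1b (E. coli BL21(DE3)) was read by filter scintillation after 10 min at 37° C plus 20 min on ice.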

[1] = biological target: T3, C1b domain of human PKD1 (PKCμ) (Homo sapiens, UniProt Q15139); test: biochemical; assay type: binding
T3 construct: Genes encoding C1b domains of human PKCα, δ, ε, θ, and PKD1 (PKCμ) were synthesized; made in house; host or cells: E. coli BL21(DE3)
T3 sequence (Q15139 270-320 limits assumed): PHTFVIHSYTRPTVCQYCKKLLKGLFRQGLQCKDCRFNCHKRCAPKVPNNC
Outline: as §1

[2] = test system: KP-4 (Pancreatic) cell line; test: Proliferation of KP-4; assay type: cell-based; details: Homo sapiens, KP-4, read-out: IC50 in μM KP-4 (Pancreatic)
Outline: (§2)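 Cells were seeded at 800-1000/well (KP-4), 5000/well (HL-60) or 5000-10000/well (Namalwa, Mino) and held 24 h at 37° C. Compounds were serially diluted 3-fold in DMSO, final DMSO ≤0.25%, for 96 h; CellTiter Glo luminescence gave % inhibition versus DMSO and IC50.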

[3] = test system: Namalwa (Lymphoma) cell line; test: Proliferation of Namalwa; assay type: cell-based; details: for ratio of (IC50 of K01)/(IC50 of compound), Namalwa: value in parenthesis; for IC50: read-out: IC50 in μM Namalwa (Lymphoma)
Outline: as §2

[4] = test system: phosphorylation of CaMKii at T286 in Panc1 cells; test: CaMKii phosphorylation in Panc1 cell line (Western blot); assay type: cell-based; details: 0.02 μM and 0.1 M, 48 hours (FIG. 5)
Description: Panc1 (a pancreatic cancer cell line) cells (˜5-8 millions) were seeded in 10 cm dishes (or ˜2 millions in 6 cm dishes) and treated next day with prostratin (K-101, 0.2 μM and 1 μM) or 0.02 μM and […] of K101-C1347, -C134801, and -C134802 for 48 hours. Cells were then collected/lysed for Western blot analysis. Protein quantification, SDS-PAGE, and Western blot procedures were performed as described in Example 65, except that a different lysis buffer (1 ml of 10×TNE [20 mL 1M Tris pH7.5; 30 mL 5M NaCl; 2 mL 0.5M EDTA; 48 mL d2H2O], 1 ml of 10% NP40, 7.7 mL of dH2O, 100 μL of 10× Protease inhibitors, 100 μL of 10× Phosphatase inhibitors, and 10 μl DTT) was used. To assess the effect of diterpenoid compounds on CaMKii phosphorylation, a phospho-specific antibody P-CaMKii (T286) (Abcam, cat #32678) was used for detection. Phosphorylation of CaMKii at T286 is a marker for activation of CaMKii kinase in the Wnt/Ca^2+ signaling pathway when […] and thus a downstream marker for inhibition of K-Ras stemness (Wang et al., Cell. 2015, 163(5):1237-51).

| SMILES | Ki PKCα (C1b domain of human PKCα) | Ki (C1b domain of human PKCθ) [nM] | Ki [1] [nM] | IC50 [2] [µM] | ratio of (IC50 of K01)/(IC50 of compound), Namalwa [3] | IC50 [3] [µM] | Ki (C1b domain of human PKCα) [nM] | phosphorylation of CaMKii at T286 [4] |
| --- | --- | --- | --- | --- | --- | --- | --- | --- |
| CC1=C[C@H]2[C@@]3(O)[C@H](C)C[C@]4(OC(=O)[C@@H](N)CC5CCCCC5)[C@H]([C@@H]3C=C(CO)C[C@]2(O)C1=O)C4(C)C [Compound K101-C1327] | E (E=>60 nM and ≤10 nM) | 5 to 10 | < 5 | 0.1 to 0.2 | 2.03 | 0.03 to 0.06 | – | – |
| CC1=C[C@H]2[C@@]3(O)[C@H](C)C[C@]4(OC(=O)[C@@H](N)[C@]56C[C@H]7C[C@H](C[C@H](C7)C5)C6)[C@H]([C@@H]3C=C(CO)C[C@]2(O)C1=O)C4(C)C [Compound K101-C1347] | – | < 5 | < 5 | 0.001 to 0.01 | 18.2 | 0.001 to 0.01 | 1 to 30 | induced phosphorylation of CaMKii at T286 |
| CC1=C[C@H]2[C@@]3(O)[C@H](C)C[C@]4(OC(=O)[C@H](N)CCCCCCc5ccccc5)[C@H]([C@@H]3C=C(CO)C[C@]2(O)C1=O)C4(C)C [Compound K101-C134801] | – | 1 to 30 | < 5 | 0.03 to 0.06 | 4.93 | 0.01 to 0.03 | 400 to 800 | induced phosphorylation of CaMKii at T286 |
| CC1=C[C@H]2[C@@]3(O)[C@H](C)C[C@]4(OC(=O)[C@@H](N)CCCCCCc5ccccc5)[C@H]([C@@H]3C=C(CO)C[C@]2(O)C1=O)C4(C)C [Compound K101-C134802] | – | < 5 | < 5 | 0.001 to 0.01 | 16.1 | 0.001 to 0.01 | 30 to 60 | induced phosphorylation of CaMKii at T286 |
